Some test systems named below: HCT-15 colon; RPMI-8226 leukemia; NCI-H23 lung; UO-31 renal; SF-539 CNS; CAKI-1 renal; PC-3 prostate; SK-MEL-28 melanoma; OVCAR-3 ovarian; MALME-3M melanoma.
Test in all cases: inhibition of tumour cell growth, NCI panel, 48 h

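Assay format: 96-well plates, 48-hour exposure. Here, GI50 denotes the concentration required for 50% inhibition of growth. TGI denotes the concentration required for complete inhibition of growth.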

For `CC1=CC(=O)N(c2cccc3c(N4C(=O)C=C(C)C4=O)cccc23)C1=O`, the GI50 was 2.67 µM with HCT-15 colon; 3.71 µM in the assay on RPMI-8226 leukemia; 15.3 µM in the assay on NCI-H23 lung; 1.78 µM in the assay on UO-31 renal; 3.37 µM with SF-539 CNS; 3.61 µM in the assay with CAKI-1 renal. The GI50 in the assay with PC-3 prostate is 7.97 µM; in the assay with SK-MEL-28 melanoma, 7.81 µM; with OVCAR-3 ovarian it was 1.54 µM; with MALME-3M melanoma it was 3.13 µM. In addition, the TGI in the assay on HCT-15 colon came to 10.2 µM; with RPMI-8226 leukemia it was 19 µM; in the assay with NCI-H23 lung, 39.7 µM; in the assay with UO-31 renal it was 4.44 µM; with SF-539 CNS it was 26.2 µM; in the assay with CAKI-1 renal, 13.8 µM. The TGI in the assay on PC-3 prostate came out at 22.7 µM; with SK-MEL-28 melanoma, 43.5 µM; with OVCAR-3 ovarian, 5.9 µM; in the assay on MALME-3M melanoma, 9.33 µM.
For the molecule `C/C=C(\N=C=S)C(=O)OC1C(COC(C)=O)OC([C@]2(O)CC(=O)C(=N)C(C(=O)O)=C2O)C(O)C1OC1CC(OC)C(O)([C@@H](C)OC(=O)[C@@H](C)CC)C(C)O1` (stereo partly drawn), the TGI in the assay on HCT-15 colon came out at 37.1 µM; in the assay with RPMI-8226 leukemia it was 7.19 µM; with NCI-H23 lung, 23.9 µM; with UO-31 renal it was 33.3 µM; in the assay on SF-539 CNS, 17.5 µM; with CAKI-1 renal it was 35 µM. In addition, the TGI in the assay with PC-3 prostate turned out to be 32.7 µM; with SK-MEL-28 melanoma it was 18.5 µM; with OVCAR-3 ovarian it was 35.7 µM; in the assay on MALME-3M melanoma, 22.8 µM.
As for `COc1ccc(Oc2nc3cc(N)cc(N)c3nc2-c2ccccc2)cc1`, the GI50 was 52.1 µM in the assay on HCT-15 colon; 25.2 µM in the assay with NCI-H23 lung; 28.5 µM in the assay with UO-31 renal; 23.3 µM with SF-539 CNS; 79.6 µM in the assay with CAKI-1 renal; 15 µM with PC-3 prostate. For the same molecule, the GI50 in the assay on SK-MEL-28 melanoma is 19.6 µM; in the assay with OVCAR-3 ovarian it was 14.9 µM. The TGI is more than 100 µM in the assay with HCT-15 colon; 71.4 µM in the assay on RPMI-8226 leukemia; more than 100 µM in the assay on NCI-H23 lung; more than 100 µM with UO-31 renal; 61.1 µM with SF-539 CNS; more than 100 µM with CAKI-1 renal. In addition, the TGI in the assay with PC-3 prostate was more than 100 µM; in the assay on SK-MEL-28 melanoma it was 49 µM; in the assay with OVCAR-3 ovarian, 72.7 µM; in the assay on MALME-3M melanoma it was more than 100 µM.
Regarding `Brc1ccccc2cc(-c3ccccc3)nc1-2`, the TGI is 17.1 µM with HCT-15 colon; 29.7 µM in the assay with RPMI-8226 leukemia; 21.2 µM in the assay on NCI-H23 lung; 25.5 µM in the assay on UO-31 renal; 17.7 µM with SF-539 CNS; 44.7 µM in the assay with CAKI-1 renal. The TGI in the assay on PC-3 prostate is more than 64.8 µM; with SK-MEL-28 melanoma, 29.8 µM; in the assay on OVCAR-3 ovarian it was 12.3 µM; with MALME-3M melanoma, 20.4 µM.
Consider `Cn1c(CCCC(=O)O)nc2cc(N(CCCl)CCCl)ccc21`, for which the GI50 was more than 100 µM in the assay on HCT-15 colon; more than 85.3 µM in the assay with RPMI-8226 leukemia; 74.9 µM in the assay with NCI-H23 lung; more than 100 µM with UO-31 renal; 65.1 µM in the assay on SF-539 CNS; 53.2 µM in the assay on CAKI-1 renal. Further, the GI50 was more than 100 µM in the assay on PC-3 prostate, more than 100 µM in the assay with SK-MEL-28 melanoma, more than 66.2 µM in the assay on OVCAR-3 ovarian and 49.6 µM in the assay with MALME-3M melanoma. In addition, the TGI in the assay with HCT-15 colon was more than 100 µM; in the assay with RPMI-8226 leukemia, more than 100 µM; in the assay with NCI-H23 lung it was more than 100 µM; in the assay with UO-31 renal, more than 100 µM; with SF-539 CNS, more than 94.1 µM; in the assay with CAKI-1 renal, more than 86.8 µM. The TGI was more than 100 µM in the assay with PC-3 prostate, more than 100 µM in the assay with SK-MEL-28 melanoma, more than 93.3 µM with OVCAR-3 ovarian and more than 100 µM in the assay with MALME-3M melanoma.
In the case of `COc1cc(C(=O)/C=C/c2cc(-c3ccc4c(c3)OCO4)n[nH]2)cc(OC)c1OC`, the GI50 in the assay with HCT-15 colon is 1.95 µM; with RPMI-8226 leukemia, 0.506 µM; in the assay with NCI-H23 lung, 2.9 µM; with UO-31 renal, 1.34 µM; in the assay on SF-539 CNS it was 1.33 µM; with CAKI-1 renal, 1.99 µM. Also, the GI50 is 1.51 µM with PC-3 prostate, 1.92 µM with SK-MEL-28 melanoma, 1.71 µM in the assay with OVCAR-3 ovarian and 1.85 µM in the assay on MALME-3M melanoma. Moreover, the TGI stood at 6.75 µM in the assay on HCT-15 colon; 2.53 µM with RPMI-8226 leukemia; 10.3 µM in the assay on NCI-H23 lung; 2.67 µM in the assay on UO-31 renal; 2.98 µM in the assay with SF-539 CNS; 5.65 µM in the assay with CAKI-1 renal. Besides, the TGI in the assay with PC-3 prostate is 4.02 µM; in the assay on SK-MEL-28 melanoma, 4.18 µM; with OVCAR-3 ovarian, 3.5 µM; in the assay with MALME-3M melanoma it was 4.69 µM.
Take `CC[C@@H](C)/C=C(C)/C=C/C(=O)c1c(O)c(-c2ccc(OC(=O)[C@@]34CC[C@@](C)(C(=O)O3)C4(C)C)cc2)cn(O)c1=O`: the GI50 with HCT-15 colon was 1.17 µM; in the assay with RPMI-8226 leukemia, 2.49 µM; in the assay with NCI-H23 lung, 2.41 µM; with UO-31 renal, 1.32 µM; in the assay with SF-539 CNS, 1.3 µM; in the assay on CAKI-1 renal it was 1.6 µM. In addition, the GI50 was 20.4 µM with PC-3 prostate, 2.51 µM in the assay with SK-MEL-28 melanoma, 1.04 µM in the assay with OVCAR-3 ovarian and 1.5 µM in the assay with MALME-3M melanoma. For the same molecule, the TGI with HCT-15 colon was more than 50 µM; with RPMI-8226 leukemia it was more than 50 µM; with NCI-H23 lung it was more than 50 µM; in the assay with UO-31 renal, 7.89 µM; in the assay with SF-539 CNS, 6.1 µM; with CAKI-1 renal, 11.9 µM. The TGI with PC-3 prostate, in the assay with SK-MEL-28 melanoma, with OVCAR-3 ovarian and in the assay with MALME-3M melanoma was more than 50 µM throughout.
With `CN(C)c1ccc(/C=C(\C#N)c2cc3ccccc3[nH]2)cc1`, the GI50 was 0.509 µM in the assay with HCT-15 colon; 0.63 µM with RPMI-8226 leukemia; 3.21 µM with NCI-H23 lung; 2.01 µM in the assay with UO-31 renal; 1.97 µM with SF-539 CNS; 1.6 µM with CAKI-1 renal. Also, the GI50 is 1.15 µM in the assay on PC-3 prostate, 2.63 µM in the assay on SK-MEL-28 melanoma, 0.409 µM in the assay with OVCAR-3 ovarian and 2.32 µM with MALME-3M melanoma. The TGI is more than 100 µM in the assay with HCT-15 colon; 4.91 µM with RPMI-8226 leukemia; more than 100 µM in the assay with NCI-H23 lung; more than 100 µM with UO-31 renal; 35.1 µM with SF-539 CNS; more than 100 µM in the assay with CAKI-1 renal. In addition, the TGI is 31.6 µM in the assay on PC-3 prostate, more than 100 µM in the assay on SK-MEL-28 melanoma, 4.06 µM in the assay with OVCAR-3 ovarian and more than 100 µM in the assay on MALME-3M melanoma.

For the origin of these results see PubChem BioAssay (NCI).
